One may read the IC50 as the concentration needed to halve the response being measured.

Ubiquitin carboxyl-terminal hydrolase 1/WD repeat-containing protein 48, sequence (O94782 whole entry): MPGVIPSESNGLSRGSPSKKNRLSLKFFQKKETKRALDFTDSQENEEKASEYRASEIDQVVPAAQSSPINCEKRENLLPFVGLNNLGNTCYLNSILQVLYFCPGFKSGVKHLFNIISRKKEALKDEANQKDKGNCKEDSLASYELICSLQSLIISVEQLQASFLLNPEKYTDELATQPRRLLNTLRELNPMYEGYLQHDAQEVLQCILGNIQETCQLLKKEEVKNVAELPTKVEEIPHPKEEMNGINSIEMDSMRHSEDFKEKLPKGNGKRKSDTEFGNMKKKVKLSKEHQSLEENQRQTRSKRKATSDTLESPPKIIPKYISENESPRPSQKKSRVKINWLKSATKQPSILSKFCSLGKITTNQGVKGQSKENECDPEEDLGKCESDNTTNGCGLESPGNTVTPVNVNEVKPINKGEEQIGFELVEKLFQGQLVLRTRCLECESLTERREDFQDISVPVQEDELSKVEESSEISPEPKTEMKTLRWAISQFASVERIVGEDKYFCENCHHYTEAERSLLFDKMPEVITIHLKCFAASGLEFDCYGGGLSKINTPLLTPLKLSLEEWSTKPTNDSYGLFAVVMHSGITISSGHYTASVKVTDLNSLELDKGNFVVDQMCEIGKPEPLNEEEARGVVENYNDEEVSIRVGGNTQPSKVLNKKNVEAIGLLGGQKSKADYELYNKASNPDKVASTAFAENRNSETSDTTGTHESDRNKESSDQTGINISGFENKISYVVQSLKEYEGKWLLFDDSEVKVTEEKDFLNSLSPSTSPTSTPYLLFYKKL
Ubiquitin carboxyl-terminal hydrolase 1/WD repeat-containing protein 48, sequence (Q8TAF3 whole entry): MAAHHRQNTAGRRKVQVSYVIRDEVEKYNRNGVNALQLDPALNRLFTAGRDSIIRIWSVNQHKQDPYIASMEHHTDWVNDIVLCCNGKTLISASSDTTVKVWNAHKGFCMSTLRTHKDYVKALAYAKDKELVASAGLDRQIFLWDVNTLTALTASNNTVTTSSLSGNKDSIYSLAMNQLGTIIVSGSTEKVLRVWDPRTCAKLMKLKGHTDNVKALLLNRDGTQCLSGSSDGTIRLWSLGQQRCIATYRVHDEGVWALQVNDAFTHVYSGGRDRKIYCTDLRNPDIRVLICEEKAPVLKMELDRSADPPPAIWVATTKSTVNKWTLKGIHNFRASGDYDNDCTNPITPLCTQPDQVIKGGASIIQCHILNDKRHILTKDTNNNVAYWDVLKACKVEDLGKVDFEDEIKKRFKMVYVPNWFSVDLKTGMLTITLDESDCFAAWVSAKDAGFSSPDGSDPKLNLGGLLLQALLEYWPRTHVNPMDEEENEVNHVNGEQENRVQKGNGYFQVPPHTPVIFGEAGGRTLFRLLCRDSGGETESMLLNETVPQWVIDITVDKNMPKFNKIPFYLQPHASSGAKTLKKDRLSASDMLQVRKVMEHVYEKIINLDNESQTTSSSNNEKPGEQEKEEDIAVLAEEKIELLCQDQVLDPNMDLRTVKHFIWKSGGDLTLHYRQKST

This assay addresses Ubiquitin carboxyl-terminal hydrolase 1/WD repeat-containing protein 48 (Homo sapiens, UniProt O94782+Q8TAF3). Description: In Vitro USP1  Inhibitory Activity. As for the experimental part:
Experimental Methods1) Preparation of 1× assay buffer: 1× assay buffer (modified Tris buffer) was prepared;2) Compound dilution: The compound was transferred to the assay plate by Echo.
`COc1cnc(-c2cccnc2C(C)C)nc1NCc1ccc(-c2nc(C(F)(F)F)cn2C)cc1` [US20250289799, Example 157]: the IC50 turned out to be 2.9 nM. As for `COc1cnc(-c2cccnc2C(C)C)nc1NCc1ccc(-n2nc(C(F)(F)F)cc2C)cc1` [US20250289799, Example 158], the figure is 2.1 nM; as for `COc1cnc(-c2ccccc2N(C)C)nc1NCc1ccc(-c2nc(C(F)(F)F)cn2C)cc1` [US20250289799, Example 159], 1.7 nM; as for `COc1cnc(-c2ccccc2N(C)C)nc1NCc1ccc(-n2nc(C(F)(F)F)cc2C)cc1` [US20250289799, Example 160], 3.6 nM. As for `COc1cnc(-c2c(Cl)cnn2C(C)C)nc1N(C)CC1CCN(c2ccccn2)CC1` [US20250289799, Example 161], the figure is 6 nM; as for `COc1cnc(-c2c(Cl)cnn2C(C)C)nc1NCc1ccc(-c2ccccn2)cc1` [US20250289799, Example 162], 3.9 nM.

Turning to `COc1cnc(-c2c(Cl)cnn2C(C)C)nc1NCC1CCN(c2nc(C(F)(F)F)cn2C)CC1` [US20250289799, Example 163], the IC50 came to 2.3 nM. As for `COc1cnc(-c2c(Cl)cnn2C(C)C)nc1NCc1ccc(-c2nc(C(F)(F)F)cn2C)cc1` [US20250289799, Example 164], the figure is 1.1 nM; as for `COc1cnc(-c2c(Cl)cnn2C(C)C)nc1NCc1ccc(-n2nc(C(F)(F)F)cc2C)cc1` [US20250289799, Example 165], 1.4 nM; as for `CC(C)n1ncc(Cl)c1-c1nc(NCc2ccc(-c3ccccn3)cc2)c2occc2n1` [US20250289799, Example 166], 2.1 nM. The compound `CC(C)n1ncc(Cl)c1-c1nc(NCc2ccc(-c3nc(C(F)(F)F)cn3C)cc2)c2occc2n1` [US20250289799, Example 167] had an IC50 of 0.45 nM. `Cc1cc(C(F)(F)F)nn1-c1ccc(CNc2nc(-c3c(Cl)cnn3C(C)C)nc3ccoc23)cc1` [US20250289799, Example 168] had an IC50 of 1.2 nM. Compound `COc1cnc(-c2ccccc2C2CC2)nc1NCc1ccc(-c2nc(C(F)(F)F)cn2C)cc1` [US20250289799, Example 169] yielded an IC50 of 0.8 nM. `COc1cnc(-c2ccccc2C2CC2)nc1NCc1ccc(-n2nc(C(F)(F)F)cc2C)cc1` [US20250289799, Example 170] displayed an IC50 of 2.9 nM. With `COc1cc(-c2nc(C(F)(F)F)cn2C)ccc1CNc1nc(-c2ccccc2C2CC2)ncc1OC` [US20250289799, Example 171], the IC50 amounted to 2.3 nM.

`COc1cc(CNc2nc(-c3ccccc3C3CC3)ncc2OC)ccc1-c1nc(C(F)(F)F)cn1C` [US20250289799, Example 172] returned an IC50 of 12 nM. For the compound `Cn1cc(C(F)(F)F)nc1-c1ccc(CNc2nc(-c3ccccc3C3CC3)nc3ccoc23)cc1` [US20250289799, Example 173], the IC50 worked out at 1 nM.

`Cc1cc(C(F)(F)F)nn1-c1ccc(CNc2nc(-c3ccccc3C3CC3)nc3ccoc23)cc1` [US20250289799, Example 174]: the IC50 was found to be 5.1 nM. `COc1cc(-c2nc(C(F)(F)F)cn2C)ccc1CNc1nc(-c2ccccc2C2CC2)nc2ccoc12` [US20250289799, Example 175] displayed an IC50 of 3.6 nM.

`COc1cc(CNc2nc(-c3ccccc3C3CC3)nc3ccoc23)ccc1-c1nc(C(F)(F)F)cn1C` [US20250289799, Example 176] showed an IC50 of 4 nM.

`COc1cnc(-c2c(OC)cnn2C(C)C)nc1N(C)CC1CCN(c2ccccn2)CC1` [US20250289799, Example 177] yielded an IC50 of 75 nM. For `COc1cnc(-c2c(OC)cnn2C(C)C)nc1NCc1ccc(-c2ccccn2)cc1` [US20250289799, Example 178] the value was 110 nM; for `COc1cnc(-c2c(OC)cnn2C(C)C)nc1NCC1CCN(c2nc(C(F)(F)F)cn2C)CC1` [US20250289799, Example 179], 56 nM.

The compound `COc1cnc(-c2c(OC)cnn2C(C)C)nc1NCc1ccc(-c2nc(C(F)(F)F)cn2C)cc1` [US20250289799, Example 180] yielded an IC50 of 15 nM. As for `COc1cnn(C(C)C)c1-c1nc(NCc2ccc(-c3ccccn3)cc2)c2occc2n1` [US20250289799, Example 181], the figure is 27 nM; as for `COc1cnn(C(C)C)c1-c1nc(NCc2ccc(-n3nc(C(F)(F)F)cc3C)cc2)c2occc2n1` [US20250289799, Example 182], 7.4 nM. In turn, `COc1cnc(-c2c(OC)cnn2C2CC2)nc1NCc1ccc(-c2ccccn2)cc1` [US20250289799, Example 183] returned an IC50 of 164 nM. The compound `COc1cnc(-c2c(OC)cnn2C2CC2)nc1NCC1CCN(c2nc(C(F)(F)F)cn2C)CC1` [US20250289799, Example 184] yielded an IC50 of 94 nM. For the compound `COc1cnn(C2CC2)c1-c1ncc(OC(F)F)c(NCc2ccc(-c3nc(C(F)(F)F)cn3C)cc2)n1` [US20250289799, Example 185], half-maximal inhibition (IC50) was put at 9.8 nM. As for `COc1cnc(-c2c(C)noc2C(C)C)nc1N(C)CC1CCN(c2ccccn2)CC1` [US20250289799, Example 186], the figure is 66 nM. `COc1cnc(-c2c(C)noc2C(C)C)nc1NCC1CCN(c2nc(C(F)(F)F)cn2C)CC1` [US20250289799, Example 187] showed an IC50 of 23.5 nM. As for `COc1cnc(-c2c(C)noc2C(C)C)nc1NCc1ccc(-c2nc(C(F)(F)F)cn2C)cc1` [US20250289799, Example 188], the figure is 15 nM; as for `Cc1noc(C(C)C)c1-c1nc(NCc2ccc(-c3ccccn3)cc2)c2occc2n1` [US20250289799, Example 189], 16 nM.

On to `Cc1noc(C(C)C)c1-c1ncc(OC(F)F)c(NCc2ccc(-c3nc(C(F)(F)F)cn3C)cc2)n1` [US20250289799, Example 190], for which the IC50 worked out at 33 nM. As for `COc1cnc(-c2c(Cl)cnn2C2CC2)nc1N(C)Cc1ccc(-c2nc(C(F)(F)F)cn2C)cc1` [US20250289799, Example 191], it took 4.3 nM to reach half-maximal inhibition (IC50).

Consider `COc1cnc(-c2c(Cl)cnn2C2CC2)nc1NCc1ccc(-c2nc(C(F)(F)F)cn2C)cc1` [US20250289799, Example 192], for which it took 3.8 nM to reach half-maximal inhibition (IC50). As for `COc1cnc(-c2cncnc2C2CC2)nc1N(C)Cc1ccc(-c2nc(C(F)(F)F)cn2C)cc1` [US20250289799, Example 193], the figure is 87 nM; as for `COc1cnc(-c2cncnc2C2CC2)nc1NCc1ccc(-c2nc(C(F)(F)F)cn2C)cc1` [US20250289799, Example 194], 51 nM; as for `COc1cnc(-c2cncnc2C2CC2)nc1NCc1ccc(-c2nc(C(F)F)cn2C)cc1` [US20250289799, Example 195], 243 nM. Compound `Cn1cc(C(F)(F)F)nc1-c1ccc(CNc2nc(-c3cncnc3C3CC3)nc3ccoc23)cc1` [US20250289799, Example 196] came in with an IC50 of 12 nM. For `Cn1cc(C(F)F)nc1-c1ccc(CNc2nc(-c3cncnc3C3CC3)nc3ccoc23)cc1` [US20250289799, Example 197] the value was 133 nM; for `COc1cnc(-c2c(C)cnn2C2CC2)nc1N(C)Cc1ccc(-c2nc(C(F)(F)F)cn2C)cc1` [US20250289799, Example 198], 3.2 nM. For `COc1cnc(-c2c(C)cnn2C2CC2)nc1NCc1ccc(-c2nc(C(F)(F)F)cn2C)cc1` [US20250289799, Example 199] the value was 5.6 nM; for `COc1cnc(-c2c(C)cnn2C(C)C)nc1N(C)Cc1ccc(-c2nc(C(F)(F)F)cn2C)cc1` [US20250289799, Example 200], 2.8 nM; for `COc1cnc(-c2c(C)cnn2C(C)C)nc1N(C)Cc1ccc(-n2nc(C(F)(F)F)cc2C)cc1` [US20250289799, Example 201], 12 nM. In the case of `COc1cnc(-c2c(C)cnn2C(C)C)nc1NCc1ccc(-c2nc(C(F)(F)F)cn2C)cc1` [US20250289799, Example 202], it took 3 nM to reach half-maximal inhibition (IC50). `C#Cc1cnc(-c2c(C)cnn2C(C)C)nc1NCc1ccc(-c2nc(C(F)(F)F)cn2C)cc1` [US20250289799, Example 203]: the IC50 came to 1.4 nM. `COc1cnc(-c2c(OC)ncnc2C2CC2)nc1N(O)Cc1ccc(-c2nc(C(F)(F)F)cn2C)cc1` [US20250289799, Example 204] displayed an IC50 of 25 nM. For the compound `COc1cnc(-c2c(C)cnn2C2CC2)nc1N(O)Cc1ccc(-c2nc(C(F)(F)F)cn2C)cc1` [US20250289799, Example 205], the IC50 is 43 nM. For the compound `COc1cnc(-c2c(OC)ncnc2C2CC2)nc1N(C#N)Cc1ccc(-c2nc(C(F)(F)F)cn2C)cc1` [US20250289799, Example 206], the IC50 was determined as 3.5 nM.

Take `COc1cnc(-c2c(OC)ncnc2C2CC2)nc1N(C)CC12C3C4C1C1C2C3C41c1nc(C(F)(F)F)cn1C` (stereo not given) [US20250289799, Example 207]: the IC50 is 3.5 nM.

As to `COc1cnc(-c2c(Cl)cnn2C(C)C)nc1NCC12CCC(c3nc(C(F)(F)F)cn3C)(CC1)OC2` [US20250289799, Example 209], half-maximal inhibition (IC50) was put at 1.6 nM. As for `COc1cnc(-c2c(Cl)cnn2C(C)C)nc1N(C)CC12CCC(c3nc(C(F)(F)F)cn3C)(CC1)OC2` [US20250289799, Example 211], the figure is 6.1 nM; as for `COc1cnc(-c2c(OC)ncnc2C2CC2)nc1N(C)CC12CCC(c3nc(C(F)(F)F)cn3C)(CC1)OC2` [US20250289799, Example 212], 19 nM; as for `COc1cnc(-c2c(OC)ncnc2C2CC2)nc1NCC12C3C4C1C1C2C3C41c1nc(C(F)(F)F)cn1C1CC1` (stereo not given) [US20250289799, Example 216], 1.4 nM.
